Read-outs that look alike come from different tables or passages of the source. A value given as a limit tells only on which side of the number the result lay.

The subject of one data set is BRL cells. As to the kind of experiment: Cell viability by CCK-8 assay in BRL cells. In kind it is cell-based. Conditions: Rattus norvegicus. The protocol: The cell viability (%) of the isolated diterpenoid alkaloids in the concentration range of 1–500 μM and the time-effectiveness of them for 24 h and 48 h were evaluated using CCK-8 assay (Figure 4). […] The IC50 values of 15 compounds and positive drug were calculated by SPSS 23.0 software. […] Therefore, through the entire experiments, the maximum concentration of tested diterpenoid alkaloids was limited to 10 μM, a concentration about one-tenth to one-fiftieth of IC50 of them. In addition, optimum dosage of modeling agent (FFA) was also selected as the concentration of 0.5 mM through CCK-8 assay (Figure S77).
Buffalo rat liver (BRL) cells were obtained from the Cell Bank, Committee for Typical Culture Preservation, Chinese Academy of Sciences. BRL cells were cultured in DMEM (containing 10% fetal bovine serum and 1% penicillin/streptomycin) under humidified 5% CO2 (v/v) atmosphere at 37 °C. To determine the cell viability of compounds 1–15, the CCK-8 assay was performed. The fifteen isolated compounds were dissolved in DMSO and diluted 1:1000 in culture medium, respectively. Cells were seeded in 96-well plates (6 × 10^3 cells per well) for 24 h incubation and then treatment with different concentrations (1, 10, 20, 50, 100, 200, and 500 µM) of each compound for 24 h or 48 h, respectively. CCK-8 solution (10% of the total solution) was added to each well, further incubated for 1 h at 37 °C. The absorbance was measured at 450 nm using a Multimode Microplate Reader.
On the technique in general: Tetrazolium dyes change colour on reduction, which living cells bring about.

Data set [1] has as its system FFA-induced BRL cells. In kind it is cell-based, rat. Conditions: for TG level (TG secretion, lipid accumulation): 10 μM, 24 h, vs. model group; for TG level (TG secretion, lipid accumulation) / TC level / TG level / ALT level / AST level: 0.5 mM FFA-induced BRL cells; for TC level / TG level / ALT level / AST level: 1, 5 or 10 µM; for ALT level / AST level: medium; for inhibitory effects on hepatocytes lipid accumulation: FFA-induced BRL cells, 1, 5 and 10 µM. The protocol: We selected FFA-induced BRL cells (oleate and palmitate ratio was 2:1) to establish a cellular NAFLD model, which is a widely used method by researchers for studying diseases related to hepatocytes lipid accumulation. The TG secretion was measured to preliminarily evaluate the inhibitory effect on lipid accumulation of 15 isolated alkaloid compounds. […] Compounds 1–15 were tested at a concentration of 10 μM in FFA-induced BRL cells to determine their inhibitory effects on hepatocytes TG secretion (Figure 5). Atorvastatin calcium (ATC) is a statin cholesterol-lowering drug and widely used in the clinical treatment of hyperlipidemia and NAFLD, etc.. Therefore, we used atorvastatin calcium (ATC, 10 µM) as a positive control drug.
BRL cells were grown in 24-well plates until 70–80% confluence. Subsequently, 0.5 mM FFA (oleate and palmitate in a final ratio of 2:1) was applied for 24 h to establish an in vitro model of hepatocytes lipid accumulation in the model group, treated with 0.5 mM FFA combination with 1, 5, or 10 µM isolated compounds for 24 h in alkaloids groups. A portion of 1% bovine serum albumin (BSA) was added in BRL cells of the control group. Then, the medium of each group was collected for determination of ALT and AST levels by commercial kits. After removing the medium, 200 µL of 0.25% trypsin was added to digest the cells in 37 °C for 2 min. Then, 500 µL of DMEM that contained 10% fetal bovine serum (FBS) was added to stop digesting. Cells suspension was centrifuged at 800 r/min for 3 min. After adding 200 µL of ethanol, cells were collected and crushed by ultrasonic cell disruptor at 4 °C. Part of the cell fragmentation solution was used for the determination of cell protein content, the other part was used to determine TG and TC levels by commercial kits according to the manufacturer’s instruction.

Data set [2] has as its system FFA-induced HepG2 cells. The data set is described as follows: Oil red O staining in FFA-induced HepG2 cells. It counts as cell-based. Conditions: 10 µM, 1 mM FFA-induced HepG2 cells. As to the method: Figure S79. Oil red O staining of lipid droplets and quantitative analysis in HepG2 cells treated with or without 1 mM FFA mixed compounds 4, 5, 7, 8, and 12 (10 µM), 400 ×; The images shown about quantitative analysis s of red stained cells are representatives of 3 replicates of each. The values are presented as mean ± SEM. ### p < 0.001, vs. the control group; * p < 0.05, ** p < 0.01, vs. the model group. […]

Data set [3] relates to FFA-induced HepG2 cells. The data set is described as follows: TG secretion assay in FFA-induced HepG2 cells. Conditions: 10 µM, 1 mM FFA-induced HepG2 cells. It counts as cell-based. The protocol: Figure S78. Effects of compounds (4, 5, 7, 8, and 12) on TG level in FFA-induced HepG2 cells. HepG2 cells were treated with a mixture of 1 mM FFA in the absence o r presence of compounds (4, 5, 7, 8, and 12) at the concentration of 10 µM. The values are presented as mean ± SEM of six independent experiments. ### p < 0.001, vs. the control group; * p < 0.05, ** p < 0.01, vs. the model group. […]

Data set [4] has as its system FFA-induced BRL cells. As to the kind of experiment: Oil red O staining of lipid droplets and quantitative analysis in FFA-induced BRL cells. The conditions noted are these: 10 µM, 0.5 mM FFA-induced BRL cells; for fold change of red-stained cell area (quantitative analysis of lipid accumulation): ImageJ, p < 0.001 vs. model group; for lipid accumulation by oil red O staining: vs. model group. It counts as cell-based, rat. The protocol:
Combined with the oil red O staining and quantitative analysis assay, the effect of reducing lipid accumulation of compounds 4, 5, 7, 8, and 12 was performed in FFA-induced BRL cells. […] Quantitative analysis of lipid accumulation was also analyzed by ImageJ 1.8.0 software by calculating the area of red-stained cells (Figure 7C).
BRL cells were plated in 96-well plates until reaching 70–80% confluence and treated with 0.5 mM FFA mixture and the tested compounds for 24 h. Controls were incubated for the same period in complete medium.
After 24 h of incubation, the cells were fixed with 5% formalin solution for 30 min and then incubated with oil red O working solution for 15 min at room temperature. After that, the cells were washed once with 60% isopropanol and three times with water. The nuclei were stained with hematoxylin solution for 2 min at room temperature. Then, the operation of oil red O staining was referred to the previous research. Finally, the red oil droplets were observed using an optical microscope.

The mark [5] stands for this setting: BRL cells, CCK-8 assay, concentration range 1–500 μM, incubation time (24 h or 48 h) not stated, read-out: IC50.

In general, IC50 refers to the midpoint of a concentration-inhibition curve. Consider `CCN1CC2(COC)CCC(OC)C34C5CC6C(OC)CC7(OCOC7(C(OC)C23)C14)C5C6O` (stereo not shown) [Compound 5, delbruline], for which, in the data set on BRL cells (setting [5]), the 50% inhibitory concentration (IC50) is greater than 500 µM. For the same compound, in the data set with FFA-induced BRL cells [1], the “TG level (TG secretion, lipid accumulation)” value is on record as “better than that of the positive control drug”; the TC level result is on record as “ameliorated”; the TG level entry is on record as “ameliorated”; the ALT level entry is recorded as “ameliorated”. Also, in the data set on FFA-induced BRL cells [1], the AST level result is recorded as “ameliorated” and the “inhibitory effects on hepatocytes lipid accumulation” value (from here on “inhibitory effects”) is reported as “strong inhibitory effects on hepatocytes lipid accumulation in a dose-dependent manner”. Further, the “lipid accumulation by oil red O evaluation” value in the data set with FFA-induced HepG2 cells [2] is recorded as “good inhibitory effects on lipid accumulation”. In addition, the “lipid accumulation by TG secretion assay” value in the data set on FFA-induced HepG2 cells [3] was “good inhibitory effects on lipid accumulation”. In addition, in the data set with FFA-induced BRL cells [4], the “fold change of red-stained cell area (quantitative analysis of lipid accumulation)” value (shortened to “fold change of red-stained cell area”) was “less than the model group” and the “lipid accumulation by oil red O staining” value is given as “significantly reduce lipid accumulation”.

For the compound `CCN1C[C@]2(C)CC[C@H](OC)[C@@]34C1[C@@]1(OCO[C@@]15C[C@H](OC)[C@H]1C[C@@H]3[C@@H]5[C@H]1O)[C@@H](O)[C@H]24` [Compound 6, delpheline], the IC50 in the data set on BRL cells is greater than 500 µM.

Turning to `CCN1C[C@]2(CO)CC[C@H](OC)[C@@]34[C@@H]5C[C@H]6[C@H](OC)[C@@H]5[C@](O)(C[C@@H]6OC)[C@](O)([C@@H](OC)[C@H]23)[C@@H]14` [Compound 7, lycoctonine], the IC50 in the data set on BRL cells (setting [5]) was greater than 500 µM. Also, in the data set on FFA-induced BRL cells [1], the “TG level (TG secretion, lipid accumulation)” value is “better than that of the positive control drug”; the TC level entry is recorded as “ameliorated”; the TG level result is listed as “ameliorated”; the ALT level entry is recorded as “ameliorated”. Besides, in the data set with FFA-induced BRL cells [1], the AST level entry is reported as “ameliorated” and the “inhibitory effects” value is reported as “strong inhibitory effects on hepatocytes lipid accumulation in a dose-dependent manner”. Further, in the data set with FFA-induced HepG2 cells [2], the “lipid accumulation by oil red O evaluation” value is reported as “good inhibitory effects on lipid accumulation”. Also, the “lipid accumulation by TG secretion assay” value in the data set with FFA-induced HepG2 cells [3] is given as “good inhibitory effects on lipid accumulation”. In addition, in the data set on FFA-induced BRL cells [4], the “fold change of red-stained cell area” value is reported as “less than the model group” and the “lipid accumulation by oil red O staining” value was “significantly reduce lipid accumulation”.

As to `CCN1CC2(COC)CCC(O)C34C5CC6C(OC)CC7(OCOC7(C(OC)C23)C14)C5C6O` (stereo not shown) [Compound 8, delbrunine], the IC50 in the data set on BRL cells (setting [5]) was found to be 408 µM. Besides, in the data set on FFA-induced BRL cells [1], the “TG level (TG secretion, lipid accumulation)” value is reported as “better than that of the positive control drug”; the TC level result is reported as “ameliorated”; the TG level result is reported as “ameliorated”; the ALT level entry is on record as “ameliorated”. Besides, in the data set with FFA-induced BRL cells [1], the AST level result is recorded as “ameliorated” and the “inhibitory effects” value is on record as “strong inhibitory effects on hepatocytes lipid accumulation in a dose-dependent manner”. In addition, the “lipid accumulation by oil red O evaluation” value in the data set on FFA-induced HepG2 cells [2] was “good inhibitory effects on lipid accumulation”. Besides, the “lipid accumulation by TG secretion assay” value in the data set on FFA-induced HepG2 cells [3] was “good inhibitory effects on lipid accumulation”. For the same compound, in the data set on FFA-induced BRL cells [4], the “fold change of red-stained cell area” value is on record as “less than the model group” and the “lipid accumulation by oil red O staining” value was “significantly reduce lipid accumulation”.

In the data set on BRL cells, `CCN1CC2(COC)CCC(O)C34C5CC6C(OC)CC(O)(C5C6O)C(O)(C(OC)C23)C14` (stereo not shown) [Compound 9, delcosine] gave a 50% inhibitory concentration (IC50) greater than 500 µM.

With `CCN1CC2(COC)CCC(O)C34C5CC6C(OC)CC7(OCOC7(C(O)C23)C14)C5C6OC` (stereo not shown) [Compound 10, uraphine], the IC50 in the data set on BRL cells was greater than 500 µM.

For `CCN1C[C@]2(COC(=O)c3ccccc3N)CC[C@H](OC)[C@]34C1[C@](O)([C@@H](OC)[C@H]23)[C@@]1(O)C[C@H](OC)[C@H]2C[C@@H]4[C@@H]1[C@H]2OC` [Compound 11, anthranoyllycoctonine], the 50% inhibitory concentration (IC50) with BRL cells (setting [5]) lay in the range of 300 to 500 µM.

In the data set with BRL cells, `CCN1CC2(COC)CCC(OC)C34C5CC6C(OC)CC(O)(C5C6O)C(O)(C(OC)C23)C14` (stereo not shown) [Compound 13, browniine] came in with an IC50 greater than 500 µM.

`CCN1CC2(COC(=O)c3ccccc3NC(=O)C(C)CC(=O)O)CCC(OC)C34C5CC6C(OC)CC(O)(C5C6OC)C(O)(C(OC)C23)C14` (stereo not shown) [Compound 14, shawurensine] came in with a concentration for half-maximal inhibition (IC50) with BRL cells greater than 500 µM. For the same compound, the “TG level (TG secretion, lipid accumulation)” value in the data set with FFA-induced BRL cells [1] was “had the effect of inhibiting the lipid accumulation (TG secretion)”.

In turn, `CCN1CC2(COC(=O)c3ccccc3NC(=O)CC(C)C(=O)O)CCC(OC)C34C5CC6C(OC)CC(O)(C5C6OC)C(O)(C(OC)C23)C14` (stereo not shown) [Compound 15, delavaine B] came in with a half-inhibitory concentration (IC50) in the data set on BRL cells greater than 500 µM. In addition, the “TG level (TG secretion, lipid accumulation)” value in the data set on FFA-induced BRL cells [1] is reported as “had the effect of inhibiting the lipid accumulation (TG secretion)”.

With `CC(C)c1c(C(=O)Nc2ccccc2)c(-c2ccccc2)c(-c2ccc(F)cc2)n1CC[C@@H](O)C[C@@H](O)CC(=O)O` [positive (ATC), Atorvastatin calcium, reference compound], the concentration for half-maximal inhibition (IC50) in the data set on BRL cells (setting [5]) stood at 88.4 µM.

These data come from paper PMC9000738, “Diterpenoid Alkaloids Isolated from Delphinium brunonianum and Their Inhibitory Effects on Hepatocytes Lipid Accumulation” (Molecules, 2022).
